Entries after “also recorded” stand apart in the source; their conditions may differ. Where two headings read alike, the source gives them in different places.
How the values were obtained:
[1] = Cooling recrystallization, solid form by XRPD; format: physicochemical; settings: no antisolvent
Procedure: Cooling Recrystallization: The selected solvents (THF/water, MeCN/water, MeOH/0.1N HCl, and EtOH/0.1N HCl) were saturated with Compound A hydrochloride at about 50-70° C. Once the solids were completely dissolved, the solution was rapidly cooled by placing into a refrigerator (about 0-5° C.). Solids were isolated after 1 to 3 days.
(§1) X-ray Powder Diffraction (XRPD): XRPD analysis was conducted on a Thermo ARL X'TRA™ X-ray powder diffractometer using Cu Kα radiation at 1.54 Å. The instrument was equipped with a fine focus X-ray tube. The voltage and amperage of X-ray generator were set at 45 kV and 40 mA, respectively. The divergence slices were set at 4 mm and 2 mm and the measuring slices were set at 0.5 mm and 0.2 mm. Diffracted radiation was detected by a peltier-cooled Si(Li) solid-state detector. A theta-two theta continuous scan at 2.40°/min (0.5 sec/0.02° step) from 1.5°2θ to 40°2θ was used. A sintered alumina standard was used to check the peak position. In general, positions of XRPD peaks are expected to individually vary on a measurement-by-measurement basis by about +0.2°2θ. In general, as understood in the art, two XRPD patterns match one another if the characteristic peaks of the first pattern are located at approximately the same positions as the characteristic peaks of the second pattern. As understood in the art, determining whether two XRPD patterns match or whether individual peaks in two XRPD patterns match may require consideration of individual variables and parameters such as, but not limited to, preferred orientation, phase impurities, degree of crystallinity, particle size, variation in diffractometer instrument setup, variation in XRPD data collection parameters, and/or variation in XRPD data processing, among others. The determination of whether two patterns match may be performed by eye and/or by computer analysis.

[2] = Grinding studies, solid form by XRPD; format: physicochemical
Procedure: Grinding Studies: Grinding experiments were performed using a Wig-L-Bug shaker. About 50 mg of Compound A hydrochloride was added to a polystyrene tube (1″×½″) with a Plexi bead (⅜″). The vial was capped and placed on the shaker for about 50 s. For wet grinding, drops of water were added to the vial and a wet paste was formed prior to placing on the shaker.
as §1

[3] = Humidity studies, solid form by XRPD; format: physicochemical
Procedure: as §1, with “Humidity Studies: […] The vials were placed in 40° C./75% RH humidity chamber with one vial capped and one vial open. The solids were tested by XRPD after four weeks. […] X-ray Powder” for “X-ray Powder”

[4] = Chemical stability upon storage
[5] = Approximate solubility in test solvents (visual/gravimetric); format: physicochemical; settings: thermodynamic from solid
Procedure: Solubility: A weighed sample of Compound A hydrochloride (about 50 mg) was treated with a known volume of a test solvent. The solvents used were either reagent or HPLC grade. The resulting mixture was agitated for at least 24 hours at about 25° C. If all of the solids appeared to be dissolved by visual inspection, the estimated solubilities were calculated based on the total volume of solvent used to give a complete solution. The actual solubilities may be greater than those calculated due to the use of large amount of solvent or to a slow rate of dissolution. If solids were present, the solubility was measured gravimetrically. A known volume of filtrate was evaporated to dryness and the weight of the residue was measured.

[6] = Stability upon compression; settings: 2000-psi pressure for about 1 minute

## Cc1nc2cccc(N)c2c(=O)n1C1CCC(=O)NC1=O.Cl (stereo not shown) [Form A1, 3-(5-amino-2-methyl-4-oxo-4H-quinazolin-3-yl)-piperidine-2,6-dione hydrochloride]
[1]; EtOH/0.1N HCl
  XRPD Result after recrystallization: Form A1
[1]; MeCN/H2O, hydrochloride
  XRPD Result after recrystallization: Form A1 + Form A
[1]; MeOH/0.1N HCl
  XRPD Result after recrystallization: Form A1
[1]; THF/H2O, hydrochloride
  XRPD Result after recrystallization: Complete salt dissociation; also recorded: Form A
[2]; Dry grinding
  XRPD Result after grinding: unchanged
[2]; Wet grinding (paste)
  XRPD Result after grinding: unchanged
[3]; 40° C./75% RH environment for four weeks
  Solid form after humidity exposure: not changed
[3]; 40° C./75% RH for 4 weeks, closed vial
  XRPD Result after humidity exposure: Form A1
[3]; 40° C./75% RH for 4 weeks, open vial
  XRPD Result after humidity exposure: Form A1
[3]; 95% RH at room temperature for 4 days, hydrochloride
  XRPD Result after humidity exposure: not changed; also recorded: Form A1
[4]; 40° C. and 75% relative humidity (RH)
  chemical stability upon storage: chemically stable
[4]; 40° C. under a nitrogen atmosphere
  chemical stability upon storage: chemically stable
[4]; 40° C. under vacuum
  chemical stability upon storage: chemically stable
[4]; 60° C. in a closed container
  chemical stability upon storage: chemically stable
[4]; room temperature, exposed to air and light, for 6 weeks
  chemical stability upon storage: chemically stable
[5]; aqueous with cosolvent or surfactant or cyclodextrin, EtOH/water (1:1), about 25° C., read-out: approximate solubility
  solubility: 3000 to 10000 µg/mL
[5]; aqueous with cosolvent or surfactant or cyclodextrin, MeCN/water (1:1), about 25° C., read-out: approximate solubility
  solubility: > 25000 µg/mL
[5]; aqueous with cosolvent or surfactant or cyclodextrin, THF/water (1:1), about 25° C., read-out: approximate solubility
  solubility: > 25000 µg/mL
[5]; aqueous with cosolvent or surfactant or cyclodextrin, acetonitrile:water, solvent system for scaleup, read-out: solubility
  solubility: > 50000 µg/mL
[5]; organic solvent or mixture, CH2Cl2, about 25° C., read-out: approximate solubility
  solubility: 3000 to 10000 µg/mL
[5]; organic solvent or mixture, MeOH, about 25° C., read-out: approximate solubility
  solubility: 3000 to 10000 µg/mL
[5]; organic solvent or mixture, THF, about 25° C., read-out: approximate solubility
  solubility: 3000 to 10000 µg/mL
[5]; organic solvent or mixture, other organic solvents tested, about 25° C., read-out: approximate solubility
  solubility: < 3000 µg/mL
[5]; water, about 25° C., read-out: approximate solubility
  solubility: 3000 to 10000 µg/mL
[6]
  stability upon compression: stable
